From patent US7129272B2, “Apoptosis inhibitor” (Sucampo AG, priority 2000, dated 2006)

Test system: retina
Assay: Light-induced retinal apoptosis in rats under continuous light exposure, TUNEL staining
Type: in vivo, SD strain rats
Conditions: SD rats exposed to 1000 lux for 4 days; 10 μg/kg subcutaneously three times a day for 4 days; TUNEL-positive cells to total cells per 200 μm of retina; n=5; control 9.3 ± 0.8; p < 0.01
Procedure: (1) Breeding Condition and Administration Method SD strain rats (male, 11 weeks old) were continuously exposed to 1000 lux of light for 4 days. During the exposure of light, the test group animals were administered subcutaneously with a composition comprising 2-decarboxy-2-(2-carboxyethyl)-13,14-dihydro-15-keto-16,16-difluoro-20-ethyl-PGE, isopropyl ester of the following formula (IV) at the amount of 10 μg/kg of the active ingredient per single administration three times a day, for 4 days. The control group animals were administrated subcutaneously the same volume of the vehicle. [drawing 7] (2) Preparation and Staining After the continuous light exposure was finished, animals of test and control groups were sacrificed by excessive etherization and both eyes of each animal were removed. The eyes were immediately fixed in a 2% paraformaldehyde and 2.5% glutaraldehyde solution in phosphate buffer, dehydrated with alcohol, and then embedded in paraffin. Thus fixed eyes were sliced parallel to the meridian of eye to provide thin retinal preparations each comprises optic disc. The obtained slices were subjected to tunnel staining (Apoptag® Intergen Company). (3) Estimation Total cell number and the number of tunnel-positive cells per 200 μm of the retina were counted and the ratio of the TUNEL-positive cells to the total cell number was determined. […]

Q: For `CCCCCCC(F)(F)C(=O)CC[C@H]1[C@H](O)CC(=O)[C@@H]1CCCCCCCCC(=O)OC(C)C` [formula (IV), 2-decarboxy-2-(2-carboxyethyl)-13,14-dihydro-15-keto-16,16-difluoro-20-ethyl-PGE, isopropyl ester], which “Ratio of the TUNEL-positive cells (%) (Ave ± SE)” value is on record?
A: The value was 1.5 ± 0.2 %.
